{"source": "patent US20250387360A1", "about": "“Methods and Compositions for Treatment of Addiction” (University of Connecticut, priority 2024, published 2025)", "format_in_all_cases": "in vivo, mouse", "key": {"male C57BL/6J mice [1]": {"system": "male C57BL/6J mice", "experiment": "Intermittent-access 20% ethanol two-bottle-choice drinking", "protocol": "Twenty male C57BL/6J mice were given access to 20% ethanol for three 24-hour sessions per week. On the first Monday, Wednesday, and Friday, mice were offered increasing concentrations of ethanol (3%, 6%, and 10% w/v, respectively) in one bottle, with water in a second bottle, to acclimate them to ethanol consumption. After this acclimation, mice received one bottle of 20% ethanol and one bottle of water every Monday, Wednesday, and Friday for 24 hours. To minimize side bias, the position of the bottles in the cage was alternated between sessions.\nFor the first 8 weeks, mice received intraperitoneal (i.p.) injections of phosphate-buffered saline (PBS) 30 minutes prior to each ethanol session to establish stable ethanol consumption (g/kg) and ethanol preference (ethanol intake as a proportion of total fluid intake). In the following 4 weeks (12 sessions), mice were randomly assigned to receive i.p. injections of either sodium valerate or sodium chloride (NaCl) at a dose of 600 mg/kg, 30 minutes before each ethanol session (n=10 per group). Ethanol and water consumption, as well as ethanol preference, were measured throughout the study to assess the effects of sodium valerate on ethanol drinking behavior compared to the NaCl control. After each 24-hour access period, the ethanol and water bottles were weighed, and mouse body weights were recorded to calculate ethanol intake (g/kg/24 hours) and water intake (mL/kg/24 hours). Ethanol preference was calculated as the ratio of ethanol intake to total fluid intake."}, "female mice": {"system": "female mice", "experiment": "4-day DID regimen in young female mice", "settings": "n=7/group, same DID protocol, vs vehicle control", "protocol": "(§1) A standard 4-day drinking in the dark (DID) model was used to evaluate binge-like ethanol drinking patterns in mice. A 20% v/v ethanol solution was prepared by diluting 190-proof ethyl alcohol (Sigma, MO, U.S.A) with deionized water. During days 1-3, the water bottles were temporarily removed during the dark cycle of the mice, and the mice were provided with a tube containing the 20% v/v ethanol solution for a duration of two hours. On day four, the assessment of binge-like ethanol consumption took place, where the mice were given access to the 20% v/v ethanol solution for a period of four hours. The volume of fluid in the tube (read to the closest 100 μL) was measured immediately upon placement, and at two hours and four hours into the test. Following the completion of the four hours test, approximately 100 μL of blood was collected through cardiac puncture after CO2 euthanasia. Blood samples were subjected to centrifugation at 10,000 rpm for 10 minutes. The determination of blood ethanol concentrations (BEC) was performed using an Analox AMI Analyzer (Analox Instruments, MA, U.S.A). The quantity of ethanol consumed was then calculated as grams per kilogram of the mouse's body weight."}, "[2]": {"experiment": "Daily body weight, food and fluid intake monitoring", "settings": "10-day supplementation", "text": "(§2) Male C57BL/6J mice, (RRID: IMSR_JAX: 000664), aged 6-8 weeks, were obtained from Jackson Laboratories (ME, U.S.A) for the study. The mice were housed individually under a reversed 12-hours light/dark cycle, with lights off from […] to 7:00 am. A minimum acclimation period of 2 weeks was provided for all animals before they were randomly assigned to their respective groups. Mice had free access to food (Irradiated chow, Teklad global 18% protein rodent diet, 2918, Inotiv, WI, U.S.A) and deionized water to acclimate to the testing environment. Body weight and daily food and fluid intake were monitored and noted for all animal experiments.\nThe food intake was assessed by providing a pre-weighed amount of food in their cage hopper and then weighing the remaining food inside the cage and in the hopper daily. To assess daily fluid intake, the sodium valerate and NaCl bottles were pre-weighed, and the remaining amount was deducted after the measurement period. Food and fluid intakes were normalized to mouse body weight by dividing the average intake by the average body weight."}, "[3]": {"system": "acetylation of histone H3 and H4 in the amygdala", "experiment": "Histone H3 and H4 acetylation ELISA in amygdala", "settings": "n=7 mice/group, vs NaCl", "protocol": "Amygdala samples were thawed, and the histone fractions were prepared using a commercial histone extraction kit (Abcam, Cambridge, UK) following manufacturers instruction. The bulk acetylation of histone H3 and H4 was determined using commercial ELISA kits according to the manufacturer's instructions (Abcam, Cambridge, UK). The OD of the samples was measured using a 96 well plate reader at 450 nm (iMark™ Microplate Absorbance Reader; Biorad, CA, USA). The amounts of acetyl histone H3 and H4 were measured by comparing to the kit supplied standards.\nThe total acetylation levels of histone H3 and H4 were quantified in the amygdala of mice subjected to the DID paradigm following supplementation with sodium valerate or NaCl (n=7 mice/group)."}, "male C57BL/6J mice [4]": {"system": "male C57BL/6J mice", "experiment": "4-day DID binge-like ethanol drinking with SCFA supplementation in drinking water", "settings": "200 mM in drinking water 10 days, male mice n=21/group", "text": "as §2, §1\nAll SCFA were used in sodium salt form. Briefly, sodium acetate (Sigma, MO, U.S.A), sodium butyrate (Sigma, MO, U.S.A), sodium valerate (Ambeed, IL, U.S.A), and sodium chloride (NaCl; Sigma, Mo, U.S.A) were prepared at 200 mM concentration freshly in drinking water every two days. These concentrations were chosen based on earlier studies conducted in mice [Qi Y., et al., Sodium acetate regulates milk fat synthesis through the activation of GPR41/GPR43 signaling pathway. Frontiers in nutrition 2023, 10:1098715; Daien C I, et al., Gut-derived acetate promotes B10 cells with anti-inflammatory effects. JCI insight 2021, 6 (7)]. All SCFA and NaCl solutions were pH verified to control for acidity effects on daily consumption. SCFAs were given to mice via oral drinking for 10 consecutive days before any experiment, and this regimen was maintained throughout the entire experiment.\nGeneral statistical analysis (non-microbiome and non-RNAseq analysis) were conducted using GraphPad Prism 8 (GraphPad, CA, USA, RRID:SCR_002798). For the calculation of ethanol consumption during the DID procedure, it was expressed as grams of ethanol per kilogram of body weight (g/kg body weight), where 20% ethanol intake was determined as follows: multiplying the drinking volume by the ethanol percentage within that volume and the density of ethanol, and then dividing this by the mouse's body weight in kilograms. Normality of data distributions was tested by Shapiro-Wilk test and by Q-Q plots. Levene's test was used to test equality of variances across groups. Unpaired Student's t-tests were used to compare behavioral testing, GABA levels, and histone acetylation measurements between the sodium valerate and NaCl groups. To evaluate the impact of antibiotic cocktail administration on ethanol consumption and BEC between the groups receiving Abx and PBS at baseline and after treatment, a mixed ANOVA test was employed, given repeated measures from the same mouse from the two time points. Similarly, mixed ANOVA tests were applied to compare various SCFA levels before and after Abx administration."}}, "note": "Entries after “also recorded” stand apart in the source; their conditions may differ.", "data": [{"smiles": "CCCCC(=O)[O-].[Na+]", "note": "[sodium valerate]", "values": [{"measurement": "ethanol consumption, week 11", "setting": "male C57BL/6J mice [1]; 600 mg/kg i.p. 30 min before each session, n=10, baseline 24.38±4.19, p<0.001", "value": "15.47±1.49", "unit": "g/kg/24 hours"}, {"measurement": "ethanol preference, week 11", "setting": "male C57BL/6J mice [1]; 600 mg/kg i.p. 30 min before each session, n=10, baseline 66.81±4.8%, p<0.01", "value": "54.26±4.5", "unit": "%"}, {"measurement": "ethanol intake, week 12", "setting": "male C57BL/6J mice [1]; 600 mg/kg i.p. 30 min before each session, n=10, p<0.001 vs baseline", "value": "13.42±1.60", "unit": "g/kg/24 hours"}, {"measurement": "ethanol preference, week 12", "setting": "male C57BL/6J mice [1]; 600 mg/kg i.p. 30 min before each session, n=10, p<0.01 vs baseline", "value": "52.06±3.92", "unit": "%"}, {"measurement": "ethanol consumption compared to the NaCl control group", "setting": "male C57BL/6J mice [1]; 600 mg/kg i.p., weeks 11 and 12, p<0.001 for both weeks", "value": "significantly lower"}, {"measurement": "ethanol preference compared to the NaCl control group", "setting": "male C57BL/6J mice [1]; 600 mg/kg i.p., weeks 11 and 12, p<0.01 for both weeks", "value": "significantly lower"}, {"measurement": "alcohol binge drinking in female mice", "setting": "female mice", "value": "significantly reduced"}, {"measurement": "blood ethanol levels in female mice", "setting": "female mice", "value": "significantly reduced"}, {"measurement": "body weight vs NaCl group", "setting": "[2]; n=10 mice/group", "value": "did not differ significantly; also recorded: did not affect"}, {"measurement": "fluid intake (intake of sodium valerate and NaCl) vs NaCl group", "setting": "[2]; n=14 mice/group", "value": "no statistical difference; also recorded: did not affect"}, {"measurement": "food consumption vs NaCl group", "setting": "[2]; n=14 mice/group", "value": "no statistical difference; also recorded: did not affect"}, {"measurement": "increase in H3 acetylation in the amygdala", "setting": "[3]", "value": "not statistically significant"}, {"measurement": "H4 acetylation in the amygdala", "setting": "[3]; p<0.01", "value": "significantly increased"}, {"measurement": "BEC lowered", "setting": "male C57BL/6J mice [4]; vs NaCl", "value": 53, "unit": "%"}, {"measurement": "reduction in ethanol consumption", "setting": "male C57BL/6J mice [4]; vs NaCl", "value": 40, "unit": "%"}, {"measurement": "ethanol consumption, median", "setting": "male C57BL/6J mice [4]; NaCl control 7.16", "value": 4.03, "unit": "g/kg body weight"}]}]}
